Laboratory results: patent US20250019387A1 (Frontier Medicines Corporation, priority 0001, published 2025)

Biological target: KRAS G12C and cRAF (Ras-binding domain) interaction (Homo sapiens (Human), UniProt P01116, C118S/C51S/C80L/G12C)
Assay: Inhibition of KRAS G12C and cRAF binding (AlphaScreen)
Settings: GMPPNP-loaded KRAS G12C, 19-20 hours incubation with compound; read-out: IC50 (Inhibition of KRAS G12C and cRAF Binding)
Description: Compounds were diluted in 100% DMSO and each compound concentration was spotted at 200 nl/well onto low volume, white 384 well plates. […] Plates were incubated for 19-20 hours. A mixture of RBD and the AlphaScreen streptavidin donor and glutathione acceptor beads diluted in 25 mM Hepes, pH 7.4, 150 mM NaCl, 5 mM MgCl2, 0.01% TritonX-100 and 2% DMSO was then added at 10 ul/well and incubated for 60-90 minutes before the samples were read for emission at 570 nm after excitation of the donor beads at 680 nm. All incubations were performed at room temperature. […] IC50s were determined using nonlinear regression fit of [inhibitor]vs. response (4 parameters). […]

KRAS G12C and cRAF (Ras-binding domain) interaction, sequence (P01116 other isoform, or with tags, fused parts or gaps G12C/C51S/C80L/C118S): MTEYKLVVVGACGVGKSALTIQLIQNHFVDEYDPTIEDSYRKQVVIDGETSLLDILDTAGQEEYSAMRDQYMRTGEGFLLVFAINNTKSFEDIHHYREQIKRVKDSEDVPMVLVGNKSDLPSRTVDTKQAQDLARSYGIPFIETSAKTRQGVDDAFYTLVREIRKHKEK

| IC50 [nM] | Compound |
| --- | --- |
| 100 to 500 | CN(c1nc(OC[C@@]23CCCN2C[C@H](F)C3)nc2c(F)c(-c3cccc4cccc(Cl)c34)ncc12)[C@@H]1CCN(C(=O)C=C2CCC2)C1 [Example 267, 1-((R)-3-((7-(8-chloronaphthalen-1-yl)-8-fluoro-2-(((2R,7aS)-2-fluorotetrahydro-1H-pyrrolizin-7a(5H)-yl)methoxy)pyrido[4,3-d]pyrimidin-4-yl)(methyl)amino)pyrrolidin-1-yl)-2-cyclobutylideneethan-1-one] |
| 100 to 500 | Cc1cc(/C=C/C(=O)N2CC[C@@H](N(C)c3nc(OC[C@@]45CCCN4C[C@H](F)C5)nc4c(F)c(-c5cccc6cccc(Cl)c56)ncc34)C2)nc(C)n1 [Example 204, (E)-1-((R)-3-((7-(8-chloronaphthalen-1-yl)-8-fluoro-2-(((2R,7aS)-2-fluorohexahydro-1H-pyrrolizin-7a-yl)methoxy)pyrido[4,3-d]pyrimidin-4-yl)(methyl)amino)pyrrolidin-1-yl)-3-(2,6-dimethylpyrimidin-4-yl)prop-2-en-1-one] |
| 100 to 500 | CN(CC1CN(C(=O)/C=C/c2nc(C3CC3)no2)C1)c1nc(OC[C@@]23CCCN2C[C@H](F)C3)nc2c(F)c(-c3cccc4cccc(Cl)c34)ncc12 [Example 104, (E)-1-(3-(((7-(8-chloronaphthalen-1-yl)-8-fluoro-2-(((2R,7aS)-2-fluorotetrahydro-1H-pyrrolizin-7a(5H)-yl)methoxy)pyrido[4,3-d]pyrimidin-4-yl)(methyl)amino)methyl)azetidin-1-yl)-3-(3-cyclopropyl-1,2,4-oxadiazol-5-yl)prop-2-en-1-one] |
| 100 to 500 | C=CC(=O)N1CC[C@@H](N(C)c2nc(OC[C@@]34CCCN3C[C@H](F)C4)nc3c(F)c(-c4cccc5cc(F)cc(F)c45)ncc23)C1 [Example 268, 1-((R)-3-((7-(6,8-difluoronaphthalen-1-yl)-8-fluoro-2-(((2R,7aS)-2-fluorohexahydro-1H-pyrrolizin-7a-yl)methoxy)pyrido[4,3-d]pyrimidin-4-yl)(methyl)amino)pyrrolidin-1-yl)prop-2-en-1-one] |
| 10 to 100 | CN(c1nc(OC[C@@]23CCCN2C[C@H](F)C3)nc2c(F)c(-c3cccc4cccc(Cl)c34)ncc12)[C@@H]1CCN(C(=O)C#C[C@]2(C)CCCN2C)C1 [Example 193, 1-((R)-3-((7-(8-chloronaphthalen-1-yl)-8-fluoro-2-(((2R,7aS)-2-fluorohexahydro-1H-pyrrolizin-7a-yl)methoxy)pyrido[4,3-d]pyrimidin-4-yl)(methyl)amino)pyrrolidin-1-yl)-3-((S)-1,2-dimethylpyrrolidin-2-yl)prop-2-yn-1-one] |
| < 10 | CN(CC1CN(C(=O)/C=C/c2nc(C(C)(C)O)no2)C1)c1nc(OC[C@@]23CCCN2C[C@H](F)C3)nc2c(F)c(-c3cccc4ccc(F)c(Cl)c34)ncc12 [Example 78, (E)-1-(3-(((7-(8-chloro-7-fluoronaphthalen-1-yl)-8-fluoro-2-(((2R,7aS)-2-fluorotetrahydro-1H-pyrrolizin-7a(5H)-yl)methoxy)pyrido[4,3-d]pyrimidin-4-yl)(methyl)amino)methyl)azetidin-1-yl)-3-(3-(2-hydroxypropan-2-yl)-1,2,4-oxadiazol-5-yl)prop-2-en-1-one] |
| 100 to 500 | C=CC(=O)N1C[C@H](N(C)c2nc(OC[C@@]34CCCN3C[C@H](F)C4)nc3c(F)c(-c4cccc5cccc(Cl)c45)ncc23)C[C@@H]1CC#N [Example 87, 2-((2R,4R)-1-acryloyl-4-((7-(8-chloronaphthalen-1-yl)-8-fluoro-2-(((2R,7aS)-2-fluorotetrahydro-1H-pyrrolizin-7a(5H)-yl)methoxy)pyrido[4,3-d]pyrimidin-4-yl)(methyl)amino)pyrrolidin-2-yl)acetonitrile] |
| > 500 | C=CC(=O)N1CC[C@@H](N(C)c2nc(OC[C@@]34CCCN3C[C@H](F)C4)nc3c(F)c(-c4cccc5cccc(C#CC)c45)ncc23)C1 [Example 306, 1-((R)-3-((8-fluoro-2-(((2R,7aS)-2-fluorotetrahydro-1H-pyrrolizin-7a(5H)-yl)methoxy)-7-(8-(prop-1-yn-1-yl)naphthalen-1-yl)pyrido[4,3-d]pyrimidin-4-yl)(methyl)amino)pyrrolidin-1-yl)prop-2-en-1-one] |
| 10 to 100 | C=CC(=O)N1CC[C@@H](N(C)c2nc(OC[C@@]34CCCN3C[C@H](O)C4)nc3c(F)c(-c4cccc5cccc(Cl)c45)ncc23)C1 [Example 137, 1-((R)-3-((7-(8-chloronaphthalen-1-yl)-8-fluoro-2-(((2R,7aS)-2-hydroxytetrahydro-1H-pyrrolizin-7a(5H)-yl)methoxy)pyrido[4,3-d]pyrimidin-4-yl)(methyl)amino)pyrrolidin-1-yl)prop-2-en-1-one] |

The remaining lines, values behind:

| Compound | IC50 [nM] |
| --- | --- |
| Cc1cc(/C=C/C(=O)N2CC[C@@H](N(C)c3nc(OC[C@@]45CCCN4C[C@H](F)C5)nc4c(F)c(-c5cccc6ccc(F)c(Cl)c56)ncc34)C2)nc(C)n1 [Example 272, (E)-1-((R)-3-((7-(8-chloro-7-fluoronaphthalen-1-yl)-8-fluoro-2-(((2R,7aS)-2-fluorotetrahydro-1H-pyrrolizin-7a(5H)-yl)methoxy)pyrido[4,3-d]pyrimidin-4-yl)(methyl)amino)pyrrolidin-1-yl)-3-(2,6-dimethylpyrimidin-4-yl)prop-2-en-1-one] | 10 to 100 |
| CN(c1nc(OCC23CCCN2CCC3)nc2c1CCN(c1cccc3cccc(Cl)c13)C2)[C@@H]1CCN(C(=O)/C=C/c2nc([C@H]3C[C@@H]3F)no2)C1 [Example 141, (E)-1-((R)-3-((7-(8-chloronaphthalen-1-yl)-2-((hexahydro-1H-pyrrolizin-7a-yl)methoxy)-5,6,7,8-tetrahydropyrido[3,4-d]pyrimidin-4-yl)(methyl)amino)pyrrolidin-1-yl)-3-(3-((1R,2S)-2-fluorocyclopropyl)-1,2,4-oxadiazol-5-yl)prop-2-en-1-one] | 10 to 100 |
| CN(c1nc(OC[C@@]23CCCN2C[C@H](F)C3)nc2c(F)c(-c3cccc4cccc(Cl)c34)ncc12)[C@@H]1CCN(C(=O)/C=C/c2nc(C3(F)CCC3)no2)C1 [Example 208, (E)-1-((R)-3-((7-(8-chloronaphthalen-1-yl)-8-fluoro-2-(((2R,7aS)-2-fluorotetrahydro-1H-pyrrolizin-7a(5H)-yl)methoxy)pyrido[4,3-d]pyrimidin-4-yl)(methyl)amino)pyrrolidin-1-yl)-3-(3-(1-fluorocyclobutyl)-1,2,4-oxadiazol-5-yl)prop-2-en-1-one] | < 10 |
| Cc1nccc(/C=C/C(=O)N2CC[C@@H](N(C)c3nc(OC[C@@]45CCCN4C[C@H](F)C5)nc4c3CCN(c3cccc5cccc(Cl)c35)C4)C2)n1 [Example 71, (E)-1-((R)-3-((7-(8-chloronaphthalen-1-yl)-2-(((2R,7aS)-2-fluorohexahydro-1H-pyrrolizin-7a-yl)methoxy)-5,6,7,8-tetrahydropyrido[3,4-d]pyrimidin-4-yl)(methyl)amino)pyrrolidin-1-yl)-3-(2-methylpyrimidin-4-yl)prop-2-en-1-one] | > 500 |
| Cc1nccc(/C=C/C(=O)N2CCC[C@H](N(C)c3nc(OC[C@@]45CCCN4C[C@H](F)C5)nc4c(F)c(-c5cccc6cccc(Cl)c56)ncc34)C2)n1 [Example 260, (E)-1-((S)-3-((7-(8-chloronaphthalen-1-yl)-8-fluoro-2-(((2R,7aS)-2-fluorotetrahydro-1H-pyrrolizin-7a(5H)-yl)methoxy)pyrido[4,3-d]pyrimidin-4-yl)(methyl)amino)piperidin-1-yl)-3-(2-methylpyrimidin-4-yl)prop-2-en-1-one] | 100 to 500 |
| CN1CCC[C@H]1COc1nc2c(c(N3CC[C@@H]4CN(C#N)C[C@@H]43)n1)CCN(c1cccc3cccc(Cl)c13)C2 [Example 37, (3aR,6aR)-1-(7-(8-chloronaphthalen-1-yl)-2-(((S)-1-methylpyrrolidin-2-yl)methoxy)-5,6,7,8-tetrahydropyrido[3,4-d]pyrimidin-4-yl)hexahydropyrrolo[3,4-b]pyrrole-5(1H)-carbonitrile] | 100 to 500 |
| Cc1cc(/C=C/C(=O)N2CC[C@@H](Nc3nc(OC[C@@]45CCCN4C[C@H](F)C5)nc4c(F)c(-c5cccc6ccc(F)c(F)c56)ncc34)C2)nc(C)n1 [Example 296, (E)-1-((R)-3-((7-(7,8-difluoronaphthalen-1-yl)-8-fluoro-2-(((2R,7aS)-2-fluorohexahydro-1H-pyrrolizin-7a-yl)methoxy)pyrido[4,3-d]pyrimidin-4-yl)amino)pyrrolidin-1-yl)-3-(2,6-dimethylpyrimidin-4-yl)prop-2-en-1-one] | 10 to 100 |

Same assay, conditions: additional exemplary compounds; KRAS G12C and cRAF binding; read-out: RAF1 RBD IC50

| IC50 [nM] | Compound |
| --- | --- |
| > 500 | Cc1nccc(/C=C/C(=O)N2C[C@H]3C[C@@H]2CN3c2nc(OC[C@@]34CCCN3C[C@H](F)C4)nc3c(F)c(-c4cccc5cccc(Cl)c45)ncc23)n1 |
| > 500 | C=CC(=O)N1CC(CN(C)c2nc(OC[C@]34CCCN3C[C@H](F)C4)nc3c(F)c(-c4cccc5cccc(Cl)c45)ncc23)C1 |
| > 500 | C=CC(=O)N1CC[C@@H](N(CC)c2nc(OC[C@@]34CCCN3C[C@H](F)C4)nc3c(F)c(-c4cccc5cccc(Cl)c45)ncc23)C1 |
| > 500 | C=CC(=O)N(C)C[C@@H]1CCN1c1nc(OC[C@@]23CCCN2C[C@H](F)C3)nc2c(F)c(-c3cccc4cccc(Cl)c34)ncc12 |

More lines, now with the values behind:

| Compound | IC50 [nM] |
| --- | --- |
| C=CC(=O)N1C[C@H](N(C)c2nc(OCC34CCCN3CCC4)nc3c2CCN(c2cccc4cccc(Cl)c24)C3)C[C@H]1C | > 500 |
| C=CS(=O)(=O)[C@@H]1CC[C@H](N(C)c2nc(OCC34CCCN3CCC4)nc3c2CCN(c2cccc4cccc(Cl)c24)C3)C1 | > 500 |
| Cc1ncc(/C=C/C(=O)NCCN(C)c2nc(OCC34CCCN3CCC4)nc3c2CCN(c2cccc4cccc(Cl)c24)C3)o1 | 100 to 500 |
